Activity calls are given as the source filed them. A value given as a limit tells only on which side of the number the result lay.

The source of these data is ChEMBL document CHEMBL1201862, “PubChem BioAssay data set” (2004).

The target of test [1] is T1, Endoribonuclease toxin MazF (Escherichia coli K-12, UniProt P0AE70).
T1 sequence (P0AE70 whole entry): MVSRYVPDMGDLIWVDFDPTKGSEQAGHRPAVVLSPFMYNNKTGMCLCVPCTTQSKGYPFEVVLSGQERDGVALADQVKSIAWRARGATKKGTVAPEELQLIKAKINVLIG
Briefly: activation of MazEF endoribonuclease cleavage – biochemical, fluorescence, single-stranded RNA substrate, uHTS hits, dose response (AID 588481). The class given is functional.

Test [2] deals with T1, Endoribonuclease toxin MazF. The test can be described thus: substrate-only fluorescence increase artefacts – biochemical, single-stranded RNase substrate, counter-screen for MazEF activator project, dose response (AID 588502). The class given is functional.
Another test deals with T2, Caspase-3 (Homo sapiens, UniProt P42574).
T2 sequence (P42574 whole entry): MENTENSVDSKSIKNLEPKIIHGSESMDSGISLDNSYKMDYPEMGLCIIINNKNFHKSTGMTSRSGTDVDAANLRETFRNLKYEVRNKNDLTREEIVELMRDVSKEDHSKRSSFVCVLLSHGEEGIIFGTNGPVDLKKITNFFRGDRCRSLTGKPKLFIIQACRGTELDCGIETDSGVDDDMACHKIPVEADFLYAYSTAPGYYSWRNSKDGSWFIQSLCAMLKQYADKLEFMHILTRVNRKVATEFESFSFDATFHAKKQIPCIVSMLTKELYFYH
In kind it is functional.

The target of test [3] is T3, Sentrin-specific protease 7 (Homo sapiens, UniProt Q9BQF6).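 Also: Luminescence-based dose-response confirmation of ultra-high-throughput screening hits, measuring inhibition of SENP7.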
T3 sequence (Q9BQF6 whole entry): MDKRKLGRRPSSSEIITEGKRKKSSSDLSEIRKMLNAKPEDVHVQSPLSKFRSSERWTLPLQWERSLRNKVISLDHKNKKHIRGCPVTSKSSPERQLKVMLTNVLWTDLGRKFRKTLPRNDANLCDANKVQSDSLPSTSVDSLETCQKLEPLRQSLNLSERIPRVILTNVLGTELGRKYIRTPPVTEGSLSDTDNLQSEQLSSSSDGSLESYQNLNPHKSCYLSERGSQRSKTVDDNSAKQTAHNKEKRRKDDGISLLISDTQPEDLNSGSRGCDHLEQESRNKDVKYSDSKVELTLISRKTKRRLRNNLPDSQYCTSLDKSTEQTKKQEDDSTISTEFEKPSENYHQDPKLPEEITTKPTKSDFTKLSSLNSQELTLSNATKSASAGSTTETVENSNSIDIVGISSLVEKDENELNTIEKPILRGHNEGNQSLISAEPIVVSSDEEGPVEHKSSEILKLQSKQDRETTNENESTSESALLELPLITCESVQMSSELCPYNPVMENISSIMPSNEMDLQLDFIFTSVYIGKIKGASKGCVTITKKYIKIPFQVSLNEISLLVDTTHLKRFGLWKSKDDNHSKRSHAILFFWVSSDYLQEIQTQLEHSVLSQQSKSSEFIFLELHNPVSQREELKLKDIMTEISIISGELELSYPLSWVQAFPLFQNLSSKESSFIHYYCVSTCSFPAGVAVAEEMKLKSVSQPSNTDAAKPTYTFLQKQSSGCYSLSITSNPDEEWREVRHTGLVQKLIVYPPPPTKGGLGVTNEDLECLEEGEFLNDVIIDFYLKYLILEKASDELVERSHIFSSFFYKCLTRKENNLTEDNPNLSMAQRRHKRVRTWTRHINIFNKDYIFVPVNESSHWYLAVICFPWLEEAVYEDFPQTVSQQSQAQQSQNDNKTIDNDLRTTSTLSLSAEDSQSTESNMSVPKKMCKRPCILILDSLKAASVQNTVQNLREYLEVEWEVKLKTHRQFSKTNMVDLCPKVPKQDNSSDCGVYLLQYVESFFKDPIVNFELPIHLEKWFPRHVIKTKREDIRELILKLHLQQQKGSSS
In kind it is functional.

In test [4] the target is T4, Sentrin-specific protease 6 (Homo sapiens, UniProt Q9GZR1).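 Also: Luminescence-based dose-response confirmatory assay of SENP6 inhibition, following up an ultra-high-throughput screen.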
T4 sequence (Q9GZR1 whole entry): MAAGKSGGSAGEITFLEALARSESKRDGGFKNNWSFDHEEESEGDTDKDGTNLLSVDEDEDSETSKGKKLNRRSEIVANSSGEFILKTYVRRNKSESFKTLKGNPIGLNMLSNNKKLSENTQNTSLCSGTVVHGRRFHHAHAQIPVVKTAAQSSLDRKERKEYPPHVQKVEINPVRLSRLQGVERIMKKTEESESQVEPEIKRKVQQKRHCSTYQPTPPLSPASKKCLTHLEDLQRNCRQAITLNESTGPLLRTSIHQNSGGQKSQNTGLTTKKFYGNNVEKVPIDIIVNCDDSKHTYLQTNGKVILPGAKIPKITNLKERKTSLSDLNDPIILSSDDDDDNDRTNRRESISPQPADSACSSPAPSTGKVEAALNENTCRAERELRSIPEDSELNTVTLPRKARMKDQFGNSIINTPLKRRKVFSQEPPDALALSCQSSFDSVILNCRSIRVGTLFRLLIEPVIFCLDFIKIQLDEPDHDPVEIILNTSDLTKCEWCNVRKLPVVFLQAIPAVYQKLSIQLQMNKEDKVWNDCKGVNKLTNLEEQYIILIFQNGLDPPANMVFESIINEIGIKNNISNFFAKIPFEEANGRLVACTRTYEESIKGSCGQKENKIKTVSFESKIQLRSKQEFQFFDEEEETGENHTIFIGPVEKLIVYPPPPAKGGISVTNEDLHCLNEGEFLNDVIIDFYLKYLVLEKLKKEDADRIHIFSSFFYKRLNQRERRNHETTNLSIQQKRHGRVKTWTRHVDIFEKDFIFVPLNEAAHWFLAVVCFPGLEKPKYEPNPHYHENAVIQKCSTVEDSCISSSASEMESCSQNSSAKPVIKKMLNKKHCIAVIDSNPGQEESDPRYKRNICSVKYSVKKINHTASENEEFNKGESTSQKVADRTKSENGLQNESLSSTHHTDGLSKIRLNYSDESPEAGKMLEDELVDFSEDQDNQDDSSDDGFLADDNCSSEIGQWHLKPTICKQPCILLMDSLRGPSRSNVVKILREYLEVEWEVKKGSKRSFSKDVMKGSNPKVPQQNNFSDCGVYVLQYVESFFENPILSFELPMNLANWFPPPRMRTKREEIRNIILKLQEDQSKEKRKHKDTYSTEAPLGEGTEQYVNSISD
In kind it is functional.

Test [5] addresses T5, Sentrin-specific protease 8 (Homo sapiens, UniProt Q96LD8).
T5 sequence (Q96LD8 whole entry): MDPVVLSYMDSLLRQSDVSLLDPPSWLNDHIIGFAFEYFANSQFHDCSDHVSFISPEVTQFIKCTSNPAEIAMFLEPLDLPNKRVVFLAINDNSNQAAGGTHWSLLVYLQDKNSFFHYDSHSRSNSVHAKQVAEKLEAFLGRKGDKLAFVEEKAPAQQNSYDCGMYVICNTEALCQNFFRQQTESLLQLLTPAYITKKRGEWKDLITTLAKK
The class given is functional.

Test [6] has as its target T6, Oxysterols receptor LXR-beta (Homo sapiens, UniProt P55055).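 Also: agonist activity at LXR measured by a cell-based luminescence readout across a dose range, run as a counterscreen for daf-12 agonists; HEK293 cells with Gal4-LXR fusion and GAL4-driven luciferase reporter; potency for activation of Gal4-LXR reporter so compounds are agonists.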
T6 sequence (P55055 whole entry): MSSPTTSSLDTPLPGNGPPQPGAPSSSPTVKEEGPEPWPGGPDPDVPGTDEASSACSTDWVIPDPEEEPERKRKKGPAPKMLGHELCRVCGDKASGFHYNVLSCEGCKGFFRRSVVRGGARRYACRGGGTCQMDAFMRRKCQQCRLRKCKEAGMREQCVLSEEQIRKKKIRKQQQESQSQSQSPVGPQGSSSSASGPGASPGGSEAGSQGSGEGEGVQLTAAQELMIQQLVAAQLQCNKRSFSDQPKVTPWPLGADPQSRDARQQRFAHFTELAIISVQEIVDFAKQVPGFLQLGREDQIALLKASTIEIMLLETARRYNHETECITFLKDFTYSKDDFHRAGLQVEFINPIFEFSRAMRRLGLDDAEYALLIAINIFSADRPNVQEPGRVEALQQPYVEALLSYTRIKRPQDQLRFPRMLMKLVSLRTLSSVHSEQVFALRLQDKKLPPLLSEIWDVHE
The class given is functional, cell-based.

Test [7] concerns the target T7, Short transient receptor potential channel 4 (Mus musculus, UniProt Q9QUQ5).
T7 sequence (Q9QUQ5 whole entry): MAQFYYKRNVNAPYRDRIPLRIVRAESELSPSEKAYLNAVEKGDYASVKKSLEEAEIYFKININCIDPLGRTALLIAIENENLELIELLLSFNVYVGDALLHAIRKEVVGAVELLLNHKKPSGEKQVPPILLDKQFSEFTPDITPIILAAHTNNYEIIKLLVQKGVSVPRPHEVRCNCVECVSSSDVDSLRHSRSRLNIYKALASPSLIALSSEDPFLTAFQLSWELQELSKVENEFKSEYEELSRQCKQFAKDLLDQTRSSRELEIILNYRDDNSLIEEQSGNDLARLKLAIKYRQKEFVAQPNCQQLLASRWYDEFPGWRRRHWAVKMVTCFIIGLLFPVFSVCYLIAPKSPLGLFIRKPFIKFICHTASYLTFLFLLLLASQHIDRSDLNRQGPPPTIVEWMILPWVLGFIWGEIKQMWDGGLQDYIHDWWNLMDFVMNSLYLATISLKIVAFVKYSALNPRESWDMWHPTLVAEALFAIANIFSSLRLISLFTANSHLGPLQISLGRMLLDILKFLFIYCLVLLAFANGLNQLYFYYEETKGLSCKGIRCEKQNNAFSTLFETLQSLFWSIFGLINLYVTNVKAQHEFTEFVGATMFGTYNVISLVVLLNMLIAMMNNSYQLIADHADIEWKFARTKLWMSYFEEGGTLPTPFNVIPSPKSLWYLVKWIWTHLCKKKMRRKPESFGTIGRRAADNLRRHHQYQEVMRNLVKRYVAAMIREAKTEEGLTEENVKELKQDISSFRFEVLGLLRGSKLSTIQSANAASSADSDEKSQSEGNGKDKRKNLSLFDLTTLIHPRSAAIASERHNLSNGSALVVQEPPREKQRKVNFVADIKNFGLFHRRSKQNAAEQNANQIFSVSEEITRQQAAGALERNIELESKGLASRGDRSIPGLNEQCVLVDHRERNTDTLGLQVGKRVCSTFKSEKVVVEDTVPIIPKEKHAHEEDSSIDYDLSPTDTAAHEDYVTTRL
The test can be described thus: block of DAMGO-driven TRPC4 calcium entry – cell-based, HEK293 TRPC4/mu-opioid, Fluo-4 calcium, dose response (AID 434942).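 Also: potency of inhibitors blocking the TRPC4 calcium response.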 In kind it is functional.

Another test relates to HEK293. The test can be described thus: EBV LMP1 TES2 canonical NF-kB signalling blockers – cell-based, HEK293, luciferase, cherry-pick, dose response (AID 588343). The class given is functional. Conditions: Homo sapiens.
For test [8], the target named is T8, Corticotropin-releasing factor receptor 2/Corticotropin-releasing factor-binding protein (Homo sapiens, UniProt P24387+Q13324).
T8 sequence (Q13324 whole entry): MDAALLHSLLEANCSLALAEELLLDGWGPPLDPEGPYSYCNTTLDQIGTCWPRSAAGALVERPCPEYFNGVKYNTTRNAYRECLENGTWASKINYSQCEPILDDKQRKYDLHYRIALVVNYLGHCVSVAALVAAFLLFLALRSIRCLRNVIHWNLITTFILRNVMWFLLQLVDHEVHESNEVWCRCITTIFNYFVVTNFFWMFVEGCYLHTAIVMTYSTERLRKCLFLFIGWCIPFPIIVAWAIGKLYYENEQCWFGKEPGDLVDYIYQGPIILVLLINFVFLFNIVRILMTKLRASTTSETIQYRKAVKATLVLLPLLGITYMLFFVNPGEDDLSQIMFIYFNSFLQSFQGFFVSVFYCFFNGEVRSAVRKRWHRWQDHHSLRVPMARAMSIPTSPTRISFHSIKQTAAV
T8 sequence (P24387 whole entry): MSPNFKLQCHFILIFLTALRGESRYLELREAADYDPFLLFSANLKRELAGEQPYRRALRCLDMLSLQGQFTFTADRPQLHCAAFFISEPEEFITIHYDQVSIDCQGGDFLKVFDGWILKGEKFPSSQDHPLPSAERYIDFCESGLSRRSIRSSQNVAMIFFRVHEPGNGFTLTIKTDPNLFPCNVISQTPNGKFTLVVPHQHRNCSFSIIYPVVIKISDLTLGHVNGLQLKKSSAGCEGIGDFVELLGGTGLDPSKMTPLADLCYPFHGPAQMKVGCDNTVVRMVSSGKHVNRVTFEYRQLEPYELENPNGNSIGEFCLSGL
Briefly: activators of CRF receptor 2 with binding protein – uHTS hits, confirmation (AID 602473). Conditions: read-out: EC50_Mean. In kind it is functional.

Take `CCOc1ccc(S(=O)(=O)NN)cc1`: the EC50 in test [1] was > 99 µM (inactive); in test [2], 23.9 µM (inactive).

A word on the IC50: it is the concentration needed to halve the response being measured. With `Cc1c(C(=O)Nc2ccccc2)csc1-c1ccccc1`, the IC50 was 19.3 µM (active) on Caspase-3, 8.96 µM (active) in test [3], 6.64 µM (active) in test [4] and 7.47 µM (active) in test [5]. Further, in test [6], the EC50 is > 67.5 µM (inactive).

As for `Cc1ccc(CN2CCN(CC(=O)N/N=C/c3ccccc3F)CC2)cc1`, the IC50 at Caspase-3 is 34.4 µM (active); in test [3] it was 14.3 µM (active); in test [4] it was 27 µM (active); in test [5] it was > 100 µM (inactive).

One may read the AC50 as the concentration at which the activity in the assay is half-maximal. Turning to `CCn1c2ccccc2c2cc(/C=N/NC(=O)c3cc(O)cc(O)c3)ccc21`, the EC50 in test [7] was 0.749 µM (active). The half-maximal activity concentration (AC50) in the test with HEK293 was 8.43 µM (active).

For the compound `CCN(CC)S(=O)(=O)c1ccc2oc(Nc3ccccc3)nc2c1`, the 50% inhibitory concentration (IC50) at Caspase-3 is 29.7 µM (active); in test [3], 9.19 µM (active); in [4], > 100 µM (inactive); in test [5], > 100 µM (inactive).

With `CCCNC(=O)Cn1c(=O)/c(=C\c2ccc(-c3cccc([N+](=O)[O-])c3)o2)s/c1=C\C(=O)C(C)(C)C`, the values for the EC50 in test [1], in test [2] and in test [8] were > 99 µM (inactive), > 99 µM (inactive) and > 53 µM (inactive), respectively.
